Laboratory results from patent US20080207578A1, “METHOD OF INDUCING APOPTOSIS IN CANCER TREATMENT BY USING CUCURBITACINS” (priority 2006, published 2008).

What was measured:
[1] = test system: PARP in HL 60 human leukemia cells; assay: Western blot of PARP cleavage in HL60 cells; assay type: cell-based
Protocol: (§1) Control cells, as well as cells treated with cucurbitacin B or cucurbitacin D, were harvested and collected by centrifugation. Whole cell extracts were then prepared by lysing the cells using 4% sodium dodecyl sulfate (SDS) gel sample buffer. Cell extracts were boiled for 10 min and chilled on ice, subjected to 12% SDS-polyacrylamide gel electrophoresis, and transferred to a PVDF membrane. Each membrane was cut into to two pieces with one piece incubated at 4^˜ overnight with antibodies against cell cycle signaling proteins, such as ERK, phosphorlated-ERK, p38, phosphorlated-p38, Cyclin E, Retinoblastoma, phosphalated-Retinoblastoma and c-myc, and apoptotic protein (PARP). β-actin was used as a control for protein loading. All antibodies were obtained from Cell signaling Technologies (USA). Then membranes were incubated at 37^˜ for 1 h with secondary antibody conjugated with peroxidase, and the signal was detected using chemiluminescence detection reagent. The relative protein level was calculated as the ratio of the optical density of the protein of interest to that of β-actin.

[2] = test system: phosphorylated-ERK, cyclin E, phosphorylated-Rb, c-myc in HL60 cells; assay: Western blot of MAPK / cell cycle signaling proteins in HL60 cells; assay type: cell-based, human
Protocol: as §1

SF-295 CNS cell line = assay: Cell cycle analysis by PI flow cytometry, SF-295; assay type: cell-based, human; conditions: SF-295, 48 hours
[3] = test system: 59 human cancer cell lines; assay: Sulforhodamine B (SRB) growth inhibition assay, 59-NCI Cancer Cell Line Panel; assay type: cell-based; conditions: 0.488 to 4000 nM, 48 hours
From the text: (§2) Human cancer cell lines from the 59-NCl Cancer Cell Line Panel including leukemia, melanoma and cancers of breast, brain, colon, lung, ovary, prostate and kidney, were purchased from the National Institute of Cancer (USA). The growth inhibition (GI50) of these cell lines treated with cucurbitacin B and cucurbitacin D in various concentrations was investigated.
(§3) 59 human cancer cell lines were maintained in RPMI 1640 (Invitrogen Life Technologies, Calif., USA) supplemented with 5% Fetal Bovine Serum, 2 mM L-glutamine and 1% Penicillin/Streptomycin (Invitrogen Life Technologies) at 37° C. with 5% CO2. All chemicals were purchased from Sigma (St. Louis, Mo., USA) unless specified otherwise.
(§4) Sulforhodamine B (SRB) assay was applied to determine the cytostatic effect of cucurbitacin B and cucurbitacin D. SRB is a dye which binds to cellular proteins and will be dissolved in base. The biomass of total protein can be measured at 520 nm using a plate reader.
(§5) Cells were inoculated into 96-well microtiter plates including “Time zero” (Tz) plates in 100 μl at cell concentrations from 5000 to 40,000 cells per well according to NCI guideline. The cells were incubated at 37° C. with 5% CO2 for 24 hours. […] Bound SRB was solubilized with 100-200 ul per well of 10 mM trizma base and absorbance was measured at a wavelength of 520 nm. The percentage of growth inhibition was calculated as follows: […]

[4] = test system: human cancer cell lines (18 selected from the 59-NCI panel); assay: Cell cycle analysis by PI flow cytometry, 18 selected cell lines; assay type: cell-based; conditions: GI50, 1/2 GI50 and 1/4 GI50 of particular cell line, 48 hours
melanoma cell lines = assay: SRB growth inhibition assay, melanoma group; assay type: cell-based, human; conditions: most sensitive type to cucurbitacin D, 48 hours
From the text: as §2, §3, §4, §5

[5] = test system: human cancer cell lines (18 selected from the 59-NCI panel); assay: Annexin V-FITC/propidium iodine flow cytometric apoptosis assay, 18 selected cell lines; assay type: cell-based; conditions: 48 hours; for cell lines in which apoptosis was induced: GI50, 1/2 GI50 and 1/4 GI50 of particular cell line; for dose dependence of apoptosis induction (in words): three concentrations
Protocol: Human cancer cell lines from the 59-NCI Cancer Cell Line Panel including leukemia, melanoma and cancers of breast, brain, colon, lung, ovary, prostate and kidney were purchased from the National Institute of Cancer. […] They were treated with cucurbitacin B and cucurbitacin D at three different concentrations to elucidate their ability to induce any changes in cell cycle.
Cancer cell lines were maintained in RPMI 1640 supplemented with 5% Fetal Bovine Serum, 2 mM L-glutamine and 1% Penicillin/Streptomycin at 37° C. with 5% CO2. All chemicals were purchased from Sigma unless specified otherwise.
Cells were inoculated into tissue culture flask at cell concentrations from 50000 to 400,000 cells/ml according to the NCl guideline. The cells were incubated at 37° C. with 5% CO2 for 24 hours. Cucurbitacin B and cucurbitacin D were added to the cells of final concentrations ranging from 6 to 350 nM (GI50, ½ GI50 and ¼ GI50 of particular cell line) for 48 hours at 37° C. with 5% CO2. Cells ([…]) were then harvested and stained with 5 μl Annexin V-FITC and 10 μl propidium iodine (Becton Dickinson, Calif., USA) for 15 minutes at room temperature. Ten thousands events were collected by the FACScaliber and the percentage of different cell populations were analyzed by the CellQuest™ software (Becton Dickinson).

[6] = test system: prostate cancer cell lines; assay: SRB growth inhibition assay, prostate cancer group; assay type: cell-based, human; conditions: most sensitive type to cucurbitacin B, 48 hours
From the text: as §2, §3, §4, §5

[7] = test system: HL60 (TB) leukemia cell line; assay: Cell cycle analysis by PI flow cytometry, HL60 (TB); assay type: cell-based, human; conditions: 48 hours

SMILES	PARP (apoptosis marker) in western blot (in words) [1]	ERK (in words) [2]	c-myc (in words) [2]	cyclin E (in words) [2]	retinoblastoma phosphorylation (in words) [2]	effect on cell cycle (in words) (SF-295 CNS cell line)	growth inhibition of 59 cancer cell lines (in words) [3]	cell lines arrested in G2/M [4]	GI50 (melanoma cell lines) [nM]	cell lines in which apoptosis was induced [5]	dose dependence of apoptosis induction (in words) [5]	GI50 [6] [nM]	effect on cell cycle (in words) [7]
CC(C)(O)/C=C/C(=O)[C@](C)(O)[C@H]1[C@H](O)C[C@@]2(C)[C@@H]3CC=C4[C@@H](C[C@H](O)C(=O)C4(C)C)[C@]3(C)C(=O)C[C@]12C [cucurbitacin D]	cleavage of PARP	ERK activation	down-regulation of c-myc	cyclin E down-regulation	inhibition of retinoblastoma's phosphorylation	G2/M arrest and endoreduplication	inhibited the growth of 59 cancer cell lines dose-dependently	9 out of 18	60	11 out of 18	induced apoptosis in a dose-dependent manner		
CC(=O)OC(C)(C)/C=C/C(=O)[C@](C)(O)[C@H]1[C@H](O)C[C@@]2(C)[C@@H]3CC=C4[C@H](C[C@H](O)C(=O)C4(C)C)[C@]3(C)C(=O)C[C@]12C [cucurbitacin B]	cleavage of PARP	ERK activation	down-regulation of c-myc	cyclin E down-regulation	inhibition of retinoblastoma's phosphorylation		inhibited the growth of 59 cancer cell lines dose-dependently	6 out of 18		9 out of 18	induced apoptosis in a dose-dependent manner	17	G2/M arrest and endoreduplication
